Results on 21 compounds are retold here after patent US20260176253A1 (priority 2021, published 2026).

Test [1] concerns the target 5-HT2Cedited (accession number AAF35842.1) (Homo sapiens, UniProt P28335, I156V/I160V/N158S). Nature of the test: biochemical. It counts as binding.
Test [2] has as its target human recombinant 5-HT2Cedited receptor (Homo sapiens, UniProt P28335, I156V/I160V/N158S). Nature of the test: cell-based.

Molecules are shown by their SMILES. Bounds are passed on as bounds.

Chain of 5-HT2Cedited (accession number AAF35842.1) (P28335 whole entry I156V/N158S/I160V, looked up): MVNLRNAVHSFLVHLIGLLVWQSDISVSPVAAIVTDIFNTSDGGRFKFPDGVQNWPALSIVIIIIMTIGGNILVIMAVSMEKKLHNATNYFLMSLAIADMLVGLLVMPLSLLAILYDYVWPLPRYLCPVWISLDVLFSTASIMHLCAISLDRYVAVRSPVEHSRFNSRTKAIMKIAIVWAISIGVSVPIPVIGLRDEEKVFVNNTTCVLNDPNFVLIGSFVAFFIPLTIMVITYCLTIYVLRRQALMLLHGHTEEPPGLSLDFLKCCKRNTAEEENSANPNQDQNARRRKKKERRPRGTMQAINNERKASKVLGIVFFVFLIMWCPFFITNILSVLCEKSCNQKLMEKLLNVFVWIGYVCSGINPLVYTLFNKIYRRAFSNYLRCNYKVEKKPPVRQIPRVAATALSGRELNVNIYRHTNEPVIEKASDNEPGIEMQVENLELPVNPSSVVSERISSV
Chain of human recombinant 5-HT2Cedited receptor (P28335 33-458 I156V/N158S/I160V limits assumed): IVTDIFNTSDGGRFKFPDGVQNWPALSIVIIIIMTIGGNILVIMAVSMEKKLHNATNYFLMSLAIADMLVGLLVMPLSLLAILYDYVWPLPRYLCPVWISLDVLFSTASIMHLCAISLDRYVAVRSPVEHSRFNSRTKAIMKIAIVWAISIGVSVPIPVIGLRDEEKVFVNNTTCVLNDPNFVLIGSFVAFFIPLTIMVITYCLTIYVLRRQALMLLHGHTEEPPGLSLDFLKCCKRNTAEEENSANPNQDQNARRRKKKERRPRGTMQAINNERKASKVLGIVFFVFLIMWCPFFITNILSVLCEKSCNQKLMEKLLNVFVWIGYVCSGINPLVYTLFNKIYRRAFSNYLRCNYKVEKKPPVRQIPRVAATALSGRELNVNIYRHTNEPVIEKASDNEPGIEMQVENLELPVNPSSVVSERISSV

As to `COc1ccc2c3c([nH]c2c1)CCN1CCCC1C3` (stereo not drawn) [Compound 1, 9-methoxy-1,2,3,5,6,7,12,12a-octahydropyrrolo[1′,2′:1,7]azepino[4,5-b]indole], in test [1], the half-maximal inhibitory concentration (IC50) lay within 1000 to 10000 nM. In addition, the concentration for a half-maximal effect (EC50) in test [2] is greater than 10000 nM.
The corresponding values for `COc1ccc2c3c([nH]c2c1)CC1CCCN1CC3` (stereo not drawn) [Compound 2, 9-methoxy-1,2,3,5,6,11,12,12a-octahydropyrrolo[1′,2′:1,2]azepino[4,5-b]indole] are 1000 to 10000 nM and 1000 to 10000 nM.
The compound `Cn1c2c(c3ccccc31)CCN1CCCC1C2` (stereo not drawn) [Compound 3, 11-methyl-1,2,3,5,6,11,12,12a-octahydropyrrolo[1′,2′:1,2]azepino[4,5-b]indole] came in with an IC50 in test [1] of 101 to 1000 nM. For the same compound, the EC50 in test [2] was in the range of 101 to 1000 nM.
As to `c1ccc2c3c([nH]c2c1)CC1CCCN1CC3` (stereo not drawn) [Compound 4, 1,2,3,5,6,11,12,12a-octahydropyrrolo[1′,2′;1,2]azepino[4,5-b]indole], in test [1], the IC50 lay within 101 to 1000 nM. Moreover, the EC50 in test [2] lay in the range of 101 to 1000 nM.
As to `COc1cccc2[nH]c3c(c12)CC1CCCN1CC3` (stereo not drawn) [Compound 5, 11-methoxy-1,2,3,5,6,7,12,12a-octahydropyrrolo[1′,2′:1,7]azepino[4,5-b]indole], the IC50 in test [1] fell in the range of 101 to 1000 nM. In addition, the EC50 in test [2] lay in the range of 1000 to 10000 nM.
The corresponding values for `Cn1c2c(c3ccccc31)CC1CCCN1CC2` (stereo not drawn) [Compound 6, 7-methyl-1,2,3,5,6,7,12,12a-octahydropyrrolo[1′,2′:1,7]azepino[4,5-b]indole] are 101 to 1000 nM and 101 to 1000 nM.
The corresponding values for `c1ccc2c3c([nH]c2c1)CCN1CCCC1C3` (stereo not drawn) [Compound 7, 1,2,3,5,6,7,12,12a-octahydropyrrolo[1′,2′:1,7]azepino[4,5-b]indole] are 101 to 1000 nM and 101 to 1000 nM.
In test [1], `FC(F)(F)c1ccc2c3c([nH]c2c1)CC1CCCN1CC3` (stereo not drawn) [Compound 12, 9-(trifluoromethyl)-1,2,3,5,6,11,12,12a-octahydropyrrolo[1′,2′:1,2]azepino[4,5-b]indole] yielded an IC50 of 1000 to 10000 nM. The EC50 in test [2] was greater than 10000 nM.
On to `FC(F)(F)Oc1ccc2c3c([nH]c2c1)CC1CCCN1CC3` (stereo not drawn) [Compound 13, 9-(trifluoromethoxy)-1,2,3,5,6,11,12,12a-octahydropyrrolo[1′,2′;1,2]azepino[4,5-b]indole], for which the IC50 in test [1] was 1000 to 10000 nM. The EC50 in test [2] was greater than 10000 nM.
In the same order, the values of `COc1ccc2c3c([nH]c2c1)C[C@@H]1CCCN1CC3` [Compound 17, (S)-9-methoxy-1,2,3,5,6,11,12,12a-octahydropyrrolo[1′,2′:1,2]azepino[4,5-b]indole] are 1000 to 10000 nM and greater than 10000 nM.
`COc1ccc2c3c([nH]c2c1)C[C@H]1CCCN1CC3` [Compound 18, (R)-9-methoxy-1,2,3,5,6,11,12,12a-octahydropyrrolo[1′,2′:1,2]azepino[4,5-b]indole] displayed an IC50 in test [1] of 1000 to 10000 nM. Moreover, in test [2], the half-maximal effective concentration (EC50) was greater than 10000 nM.
The corresponding values for `c1ccc2c3c([nH]c2c1)C[C@@H]1CCCN1CC3` [Compound 19, (S)-1,2,3,5,6,11,12,12a-octahydropyrrolo[1′,2′:1,2]azepino[4,5-b]indole] are 101 to 1000 nM and 101 to 1000 nM.
The corresponding values for `c1ccc2c3c([nH]c2c1)C[C@H]1CCCN1CC3` [Compound 20, (R)-1,2,3,5,6,11,12,12a-octahydropyrrolo[1′,2′:1,2]azepino[4,5-b]indole] are 101 to 1000 nM and 10 to 100 nM.
The corresponding values for `FC(F)(F)c1cccc2[nH]c3c(c12)CCN1CCCC1C3` (stereo not drawn) [Compound 21, 7-(trifluoromethyl)-1,2,3,5,6,11,12,12a-octahydropyrrolo[1′,2′:1,2]azepino[4,5-b]indole] are 101 to 1000 nM and 101 to 1000 nM.
Compound `c1ccc2c3c([nH]c2c1)CCN1CCC[C@@H]1C3` [Compound 22, (R)-1,2,3,5,6,7,12,12a-octahydropyrrolo[1′,2′:1,7]azepino[4,5-b]indole] gave an IC50 in test [1] of 101 to 1000 nM. Besides, the EC50 in test [2] fell in the range of 101 to 1000 nM.
Compound `c1ccc2c3c([nH]c2c1)CCN1CCC[C@H]1C3` [Compound 23, (S)-1,2,3,5,6,7,12,12a-octahydropyrrolo[1′,2′:1,7]azepino[4,5-b]indole] gave an IC50 in test [1] of 101 to 1000 nM. Further, the EC50 in test [2] fell in the range of 101 to 1000 nM.
`COc1ccc2c3c([nH]c2c1)CCN1CCC[C@@H]1C3` [Compound 24, (R)-9-methoxy-1,2,3,5,6,7,12,12a-octahydropyrrolo[1′,2′:1,7]azepino[4,5-b]indole]: the IC50 in test [1] was 1000 to 10000 nM. In test [2], the EC50 is 1000 to 10000 nM.
`COc1ccc2c3c([nH]c2c1)CCN1CCC[C@H]1C3` [Compound 25, (S)-9-methoxy-1,2,3,5,6,7,12,12a-octahydropyrrolo[1′,2′:1,7]azepino[4,5-b]indole] had a half-maximal inhibitory concentration (IC50) in test [1] of 1000 to 10000 nM. Besides, in test [2], the 50% effective concentration (EC50) lay in the range of 1000 to 10000 nM.
For the compound `COc1cccc2[nH]c3c(c12)C[C@H]1CCCN1CC3` [Compound 26, (R)-11-methoxy-1,2,3,5,6,7,12,12a-octahydropyrrolo[1′,2′:1,7]azepino[4,5-b]indole], the IC50 in test [1] fell in the range of 10 to 100 nM. In test [2], the half-maximal effective concentration (EC50) is 10 to 100 nM.
The compound `COc1cccc2[nH]c3c(c12)C[C@@H]1CCCN1CC3` [Compound 27, (S)-11-methoxy-1,2,3,5,6,7,12,12a-octahydropyrrolo[1′,2′:1,7]azepino[4,5-b]indole] had an IC50 in test [1] of 101 to 1000 nM. In addition, in test [2], the 50% effective concentration (EC50) lay in the range of 101 to 1000 nM.
With `FC(F)(F)c1cccc2[nH]c3c(c12)CC1CCCN1CC3` (stereo not drawn) [Compound 28, 11-(trifluoromethyl)-1,2,3,5,6,7,12,12a-octahydropyrrolo[1′,2′:1,7]azepino[4,5-b]indole], in test [1], the IC50 fell in the range of 10 to 100 nM. Further, the concentration for a half-maximal effect (EC50) in test [2] is 101 to 1000 nM.
